SMILES strings stand for the structures. Several values for one entry are separate records, joined by “and”; a condition that tells them apart may be missing. Equal entries are not always repeated. Where two headings read alike, the source gives them in different places. A value given as a limit tells only on which side of the number the result lay.

This is an account of results in patent US20060099712A1, “Correlation of anti-cancer activity of dyes with redox potentials” (Eastman Kodak Company, priority 2004, published 2006).

The test system of experiment [1] is CX-1 Human Colon Carcinoma. In words: Clonogenic dye screening assay, CX-1 cells (IC50). It is filed as cell-based. Conditions: for CX (IC50 in the CX-1 cell line): 3 hrs treatment, unit from method b117-118; for CV/CX (selectivity, kill ratio): ratio of IC50 in normal CV-1 line to IC50 in carcinoma CX-1 line; for IC50: Homo sapiens. Summed up:
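Cells seeded 16-30 h ahead (2000 CX-1 or 1000 CV-1 per well), exposed to serially diluted dyes for 3 h at 37 °C, rinsed three times, then grown into colonies. Eight-point curves spanned 0.32-0.0015 μg/mL (CX-1) and 3.2-0.025 μg/mL (CV-1). IC50 is the concentration killing 50% of cells.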

The subject of experiment [2] is CV-1 Normal Monkey Kidney Epithelial. Description: Clonogenic dye screening assay, CV-1 cells (IC50). The class given is cell-based, African green monkey. Conditions: for CV (IC50 in the CV-1 cell line): 3 hrs treatment, unit from method b117-118; for IC50: Primates. From the text:
CX-1 is a cancerous human colon adenocarcinoma cell line. CV-1 is a non-cancerous control, which is a kidney epithelial cell line from an African green monkey. IC50 is the dye concentration at which 50% of the cells are killed. Selectivity or kill ratio is defined as the ratio of […] at IC50 for both CX-1 and CV-1. A ratio with a high number indicates a high selectivity.
The dyes were screened in two cell lines. CX-1 is a human colon adenocarcinoma cell line. CV-1 is a kidney epithelial cell line from an African green monkey. CV-1 was used as a reference because no normal human epithelial cell line is available for clonogenic assay.
In the initial screen, dyes were examined at six different concentrations to generate a dose response curve. An IC50 value, the concentration at which 50% of the cells are killed, was then calculated. Initially, a dye concentration of 1.0 μg/mL was the highest examined for the CX-1 cell line and 0.005 μg/mL was the lower limit. The corresponding limits on the CV-1 cell line were […].
The screening procedure used a response curve that was determined from eight dye concentrations. The upper and lower limits of CX-1 were 0.32 and 0.0015 μg/mL, respectively, and the corresponding revised limits on CV-1 were 3.2 and 0.025 μg/mL. The screening results were reported by assigning an IC50 value to each dye for the CV-1 and CX-1 cell lines. These values will be referred to herein simply as CV and CX. The most desirable result would be to have a dye that was highly toxic to carcinoma cells but nontoxic to ‘normal’ cells. One measure of this type of selectivity is the ratio of the IC50's in the normal cell line to that in the carcinoma line, CV/CX.
Compounds are screened via an in vitro assay. CV-1 and CX-1 cells are seeded into separate assay plates. The plates are treated with varying concentrations of test compounds, rinsed, and colonies allowed to grow. IC50's are determined and drugs evaluated based on their selectivity and toxicity. Assay Steps: • I. Seeding Cells • II. Weighing • III. Preparation of Solution • IV. Treatment • V. Rinsing and Feeding • VI. Fixing • VII. IC50 Determination I. Seeding Cells
The cells should be seeded 16-30 hours before treatment. The media for CV-1 cells is DME+5% calf serum +5% Nuserum. The media for CX-1 cells is RPMI/DME (50/50)+5% calf serum +5% Nuserum.
(c) number of cells based on 2000 CX-1 cells/well and 1000 CV-1 cells/well. NOTE: Always make enough cell suspension for 1 extra plate to allow for volume loss during transfers.
• (a) For CV-1: 256 ug/ml-256 ul of 1 mg/ml stock +744 ul DMSO • (b) For CX-1: 25.6 ug/ml-100 ul of 256 ug/ml+900 ul DMSO IV. Treatment • 1. Each plate is treated with 4 test compounds, one positive control and one negative control. • 2. Serial dilutions of the compounds are made in the following way:
2 multi-well pipetters are used. One is set for 10 ul and one for 200 ul. Each is equipped with 6 tips spaced such that they fit into the 6 rows of a plate. 390 ul of media is added to the first column of each plate. 10 ul each of 4 compound solutions, a positive and a negative control are taken up and put into the first column of wells. The 200 ul pipetter is then placed in the same wells, pipetted up and down 3 times and two 200 ul aliquots are moved to the next column of wells. This column is pipetted up and down 3 times and 400 ul moved to column 3, etc. The final 400 ul excess from column 8 is discarded.
• 3. Label the plates along the front, each row −1 compound. • 4. Incubate the plates at 37° C. for 3 hrs. V. Rinsing • 1. Prepare several bottles of CX-1 and CV-1 media. • 2. Check for precipitate in first column of each plate and note. • 3. Starting with the plates treated first, rinse several plates at a time by aspirating the treatments and refilling each well with 0.5-1.0 ml of the rinse media. Aspirate and refill 2 more times for a total of 3 rinses. • 4.

[3] abbreviates: CX-1, 3 hrs treatment, colonies after 7-10 days, unit from method, read-out: CX (IC50 in the CX-1 cell line).
[4] abbreviates: CV-1, 3 hrs treatment, colonies after 7-10 days, unit from method, read-out: CV (IC50 in the CV-1 cell line).

With `CC(=CC(C)=C1Sc2ccccc2N1C)c1sc2ccccc2[n+]1C` [drawing 38|M|Me|H|Me], the “CX (IC50 in the CX-1 cell line)” value in experiment [1] (colonies after 7-10 days) worked out at 0.2 µg/mL. In addition, the “CV/CX (selectivity, kill ratio)” value in experiment [1] was 2.5. For the same compound, in experiment [2] (colonies after 7-10 days), the “CV (IC50 in the CV-1 cell line)” value was found to be 0.5 µg/mL.

As for `CC[n+]1c(/C=C/C=C2/c3c(C)ccc(C)c3C(C)(Cc3ccccc3)N2C)sc2ccc3ccccc3c21` [Dye D-133], the IC50 in experiment [1] (setting [3]) is 0.009 µg/mL; in experiment [2] (setting [4]), 3 µg/mL. The Selectivity in experiment [1] (Table 1, cell line not given, values equal CV/CX of Table II) was found to be 333.5. Moreover, the “CV/CX (selectivity, kill ratio)” value in experiment [1] was found to be 333.5.

`CCN1/C(=C/C=C/c2oc3ccc(SC)cc3[n+]2C)Sc2ccccc21.[I-]` [Dye D-138]: the “CX (IC50 in the CX-1 cell line)” value in experiment [1] (colonies after 7-10 days) was less than 0.005 µg/mL. Also, the “CV/CX (selectivity, kill ratio)” value in experiment [1] is >60.0 and 60. Further, the “CV (IC50 in the CV-1 cell line)” value in experiment [2] (colonies after 7-10 days) is 0.3 µg/mL.

Regarding `CCN1C(=O)/C(=C\C=C2/Oc3ccccc3N2CC)S/C1=N\c1sc2ccccc2[n+]1CC` [Dye D-107], the IC50 in experiment [1] (setting [3]) was 0.05 µg/mL; in experiment [2] (setting [4]), 3 µg/mL. The “CV/CX (selectivity, kill ratio)” value in experiment [1] is 60.

As to `C(=C\c1cc[n+]2c3c(cccc13)Sc1ccccc1-2)/C=c1\ccn2c3ccccc3sc3cccc1c3-2` [Dye D-117], the results for the IC50 in experiment [1] (setting [3]) and in experiment [2] (setting [4]) were 0.1 µg/mL and 7 µg/mL, respectively. Also, the “CV/CX (selectivity, kill ratio)” value in experiment [1] was 70.

Consider `CC[n+]1c(/C=C/C=C2\OC=C(c3ccccc3)N2C)sc2ccccc21` [Dye D-145], for which the IC50 is less than 0.005 µg/mL in experiment [1] (setting [3]) and 0.3 µg/mL in experiment [2] (setting [4]). Also, the “CV/CX (selectivity, kill ratio)” value in experiment [1] is 60.

With `CCN1/C(=C/C=C/c2sc3cc4ccccc4nc3[n+]2CC)Sc2ccc3ccccc3c21` [Dye D-114], the IC50 in experiment [1] (setting [3]) amounted to 0.05 µg/mL; in experiment [2] (setting [4]) it was 3 µg/mL. The “CV/CX (selectivity, kill ratio)” value in experiment [1] is recorded as 60.

In the case of `CCN1C=C(c2ccccc2)O/C1=C\C=C\c1sc2ccccc2[n+]1CC` [Dye D-123], the IC50 in experiment [1] (setting [3]) amounted to 0.005 µg/mL; in experiment [1] (CX-1, Table XVI, unsymmetrical dyes, CX-1 cells, read-out: CX) it was 0.005 µg/mL; in experiment [2] (setting [4]), 0.4 µg/mL; in experiment [2] (CV-1, Table XVI, unsymmetrical dyes, CV-1 cells, read-out: CV) it was 0.4 µg/mL. The CV/CX in experiment [1] (Table XVI, selectivity ratio of IC50 values) is given as 80.0. Moreover, the “CV/CX (selectivity, kill ratio)” value in experiment [1] turned out to be 80.

On to `CC[n+]1c(/C=C/C=C2\SCCCN2C)sc2ccccc21` [Dye D-144], for which the IC50 in experiment [1] (setting [3]) was found to be 0.03 µg/mL; in experiment [2] (setting [4]) it was 3 µg/mL. Further, the “CV/CX (selectivity, kill ratio)” value in experiment [1] is recorded as 100.

As to `CCN1/C(=C/C=C/C=C/c2sc3cc4ccccc4cc3[n+]2CC)Sc2cc3ccccc3cc21` [Dye D-162], the “CV/CX (selectivity, kill ratio)” value in experiment [1] amounted to 60. In addition, the IC50 in experiment [2] (setting [4]) amounted to 3 µg/mL.

As to `CCN1/C(=C/C=C/c2oc3ccc(-c4ccccc4)cc3[n+]2CCOC(C)=O)Sc2ccccc21` [Dye D-153], the values for the IC50 in experiment [1] (setting [3]) and in experiment [2] (setting [4]) were 0.03 µg/mL and 3 µg/mL, respectively. In addition, the “CV/CX (selectivity, kill ratio)” value in experiment [1] was 100.

`CCSC(=C\c1oc2ccccc2[n+]1C)/C=C1\Sc2ccccc2N1CC.[I-]` [Dye D-127]: the “CV/CX (selectivity, kill ratio)” value in experiment [1] is 60. In addition, the “CV (IC50 in the CV-1 cell line)” value in experiment [2] (colonies after 7-10 days) is 0.3 µg/mL.

On to `CCN1/C(=c2/s/c(=c3\s/c(=C\c4ccc5ccccc5[n+]4CC)n(CC)c3=O)n(CC)c2=O)Sc2ccccc21` [Dye D-108], for which the IC50 in experiment [1] (setting [3]) is 0.045 µg/mL; in experiment [2] (setting [4]), 3.2 µg/mL. Also, the “CV/CX (selectivity, kill ratio)” value in experiment [1] came to 71.15.

As to `CCC(/C=C1\Sc2ccc(Cl)cc2N1C)=C\c1oc2ccc(-c3ccccc3)cc2[n+]1C` [Dye D-147], the IC50 was 0.05 µg/mL in experiment [1] (setting [3]) and 8 µg/mL in experiment [2] (setting [4]). The “CV/CX (selectivity, kill ratio)” value in experiment [1] worked out at 160.

On to `CCN1/C(=C/C=C/c2sc3c([n+]2C)CCCC3)Sc2ccccc21` [Dye D-146], for which the values for the IC50 in experiment [1] (setting [3]) and in experiment [2] (setting [4]) were no more than 0.004 µg/mL and 0.3 µg/mL, respectively. Also, the “CV/CX (selectivity, kill ratio)” value in experiment [1] was 75.0 and 60.

For the compound `CCN1/C(=C(\C=C\c2oc3ccccc3[n+]2CC)c2ccccc2)Sc2ccccc21.[I-]` [Dye D-139], in experiment [1] (colonies after 7-10 days), the “CX (IC50 in the CX-1 cell line)” value came out at 0.03 µg/mL. Further, the “CV/CX (selectivity, kill ratio)” value in experiment [1] is listed as 100. Moreover, the “CV (IC50 in the CV-1 cell line)” value in experiment [2] (colonies after 7-10 days) came out at 3.0 µg/mL.

Regarding `CCN(CC)CCN1/C(=C/C(C)=C/c2sc3ccccc3[n+]2CCN(CC)CC)Sc2ccccc21` [Dye D-121], the IC50 was 0.01 µg/mL in experiment [1] (setting [3]) and 0.8 µg/mL in experiment [2] (setting [4]). Also, in experiment [1], the “CV/CX (selectivity, kill ratio)” value amounted to 80.
